Consider three compounds from paper PMC8066331, “Anticancer Activity of Triazolo-Thiadiazole Derivatives and Inhibition of AKT1 and AKT2 Activation” (Pharmaceutics, 2021).

One experiment relates to HT-29. More on the design: method as in PMID 32801761. The following applies: HT-29 cells, concentration used for Akt phosphorylation study, determined in previous studies ref 23; cited from earlier work.
A further experiment has as its system Akt2 phosphorylation. Description: Detection of Akt2 phosphorylation by intracellular flow cytometry. Type of experiment: cell-based, human. The following applies: for decrease of Akt2 phospho-form: HT-29 cells; for phosphorylation of Akt2: GI50 and TGI concentrations. On the procedure: (§1) To investigate whether KA25 and KA39 triazolo[3,4-b]thiadiazole derivatives inhibit the phosphorylation of Akt1 and Akt2 isoforms, three colorectal cancer cell lines including HT-29, LoVo, and SW403 were intracellularly stained upon treatment with the two referred compounds. Firstly, cells were seeded into a 6-well plate at a density of 7 × 10^5 cells/well and maintained at 37 °C in a […]. After 24 h of cell growth, the culture medium was discarded and replaced with 2 mL of fresh medium. […] The required GI50 and TGI concentrations (μΜ) of the KA25 and KA39 derivatives in HT-29 and LoVo cells have been determined in previous studies. To estimate the TGI concentration (μΜ) of the KA25 compound in SW403 cells, further MTT assays were carried out as previously described. Following drug exposure at the mentioned treatment conditions, the cells were collected after being washed with ice-cold PBS (pH = 7.4) and detached enzymatically with standard trypsinization. Two centrifugations were followed at 1500 rpm for 5 min, including two washing steps with 2 mL of cell staining buffer (BioLegend, San Diego, CA, USA). Cell pellets were fixed with 500 μL of pre-warmed fixation buffer (BioLegend, San Diego, CA, USA) and incubated at 37 °C for 15 min. Afterwards, one centrifugation was carried out at 1000 rpm for 5 min, followed by supernatant discard and resuspension of cell pellet through vortex. Then, the cells were washed with 2 mL of cell staining buffer twice, including two centrifugations at 1000 rpm for 5 min at room temperature. After the cell pellet was resuspended with gentle pipetting, cells were permeabilized by adding 1000 μL of pre-chilled True-Phos Permeabilization buffer (BioLegend, San Diego, CA, USA) while vortexing. Following overnight incubation at −20 °C, the cells were centrifuged at 2000 rpm for 5 min and the supernatant was discarded. After the cell pellet was resuspended by vortexing, two centrifugations were performed at 2000 rpm for 5 min including two washes with 2 mL of cell staining buffer. The cell pellet was resuspended with 200 μL of cell staining buffer, and equal volumes were transferred into the appropriate tubes. To detect total Akt1 and Akt2, 2 μL of purified anti-Akt1 and anti-Akt2 (BioLegend, San Diego, CA, USA) was added, respectively. Additionally, 2 μL of purified anti-Akt phospho(Ser473) (BioLegend, San Diego, CA, USA) was added for the detection of either phosphorylated AKT1 or AKT2. Furthermore, a cocktail of isotype controls (5 μL of purified mouse IgG1, 5 μL of purified mouse IgG2b, and 1 μL of purified rabbit polyclonal isotype control antibody) was used to differentiate nonspecific background signals from specific antibody signals. The cells were incubated for 30 min at room temperature in the dark and then stained with 5 μL of phycoerythrin (PE) donkey anti-rabbit IgG and 2 μL of Alexa Fluor 488 Goat anti mouse IgG (BioLegend, San Diego, CA, USA). After 15 min of incubation in the dark, the cells were resuspended with 1000 μL of cell staining buffer and analyzed in the flow cytometer (CyFlow®, SL, Partec, GmbH, Muenster, Germany). Flow cytometric analysis was carried out in triplicate and performed by Partec Flomax software.
(§2) The inhibitory impact of the two triazolo[3,4-b]thiadiazole derivatives KA25 and KA39 on the phosphorylation of either Akt1 (p-Akt1) or Akt2 (p-Akt2) was determined by the following formulas: p-Akt1(%) or p-Akt2 (%) = [(mean-xtreated − isotypetreated)]/[(mean-xuntreated − isotypeuntreated)] × 100, where the isotype value is subtracted from the mean-x value of the corresponding condition, including treated and untreated cells. As the formulas indicate, the difference in value of treated cells is divided by the difference in value of untreated cells (control group) to estimate the extent of inhibition. […]
For orientation: A flow cytometer gives signals particle by particle.

The subject of a further experiment is Akt1 phosphorylation. Description: Detection of Akt1 phosphorylation by intracellular flow cytometry. Type of experiment: cell-based, human. The settings on record: for decrease of Akt1 phospho-form: HT-29 cells; for phosphorylation of Akt1: GI50 and TGI concentrations. As for the experimental part: as §1, §2
The subject of experiment [1] is HT-29 human tumor (colorectal adenocarcinoma) xenograft. Description: In vivo antitumor activity, HT-29 xenograft. The following applies: HT-29 xenograft in CB17 SCID mice; for volume size of the tumors: eighteen days after single i.p. dose at LD10; for tumor inhibition (TI): single i.p. dose at LD10. On the procedure: CB17 severe combined immunodeficient (SCID) male and female mice were used for toxicity and antitumor activity studies. Mice were obtained from National Center for Scientific Research (NCSR) Demokritos, Institute of Biology, Athens, Greece. CB17 SCID mice were fed water and an irradiated standard rodent diet ad libitum and housed under specific pathogen-free conditions. For ethical reasons, the weight and tumor volumes of the animals were measured twice a week during the experiment. In case of cachexia, suffering, or increase in the tumor volume up to 2000 mm^3, the animals were sacrificed by cervical disruption. The protocol was approved by the ethical committee of the National and Kapodistrian University of Athens and was conducted according to the European Directive 86/609/EEC guidelines for the care and use of laboratory animals. The study received a permit from the Veterinary Directorate of the Prefecture of Athens (approval #: 2023/2017) according to the Greek legislation conforming to the 2010/53/ EU Council Directive.
HT-29 (human colorectal adenocarcinoma) tumor volume was developed by subcutaneously implanting 2 × 10^6 HT-29 cells/mouse in the right hind flank. In vivo antitumor activity was investigated in 22 mice, of which 7 mice served as the common control group and the 15 remaining mice were divided into three groups of 5 mice. Therefore, each derivative was administered in a group of five mice. The animals were randomized into test groups on day 28 when their tumor volumes were in the 150–200 mm^3 range. After randomization, the mice were treated intraperitoneally (day 1) with the tested compounds (KA25, KA26, and KA39) as a single dose LD10. The control group received saline buffer (0.2 mL).
The tumor volumes were measured using an analogue caliper twice a week starting on the first day of treatment. To determine the volume (mm^3) of each tumor in an animal, the following formula was used: (D × d^2/2), where D and d refer to the larger and smaller perpendicular dimensions collected at each measurement, respectively. The diameters were determined from two orthogonal measurements on each tumor. The mean tumor volume was determined by average all tumor volumes in each group. The weekly mean tumor area change was determined and tumor inhibition (TI) was calculated by the formula: TI (%) = [1 − (TWT − TWZ)/[(TWC − TWZ)] × 100, where TWT is determined as the tumor area (mm^3) in treated animals at the time of evaluation, TWZ is determined as the tumor area (mm^3) at the time of initiation of treatment (zero time), and TWC is determined as the tumor volume (mm^3) in untreated animals (controls) at the time of evaluation. The animals were sacrificed when the tumor volume reached 2000 mm^3 (endpoint).

[2] abbreviates: GI50 concentration (KA39 11.5 μΜ, KA25 1 μΜ), 3 h.
Where [3] appears, read: GI50 concentration (KA39 11.5 μΜ, KA25 1 μΜ), 24 h.
[4] abbreviates: TGI concentration (KA39 15.9 μΜ, KA25 120 μΜ), 3 h.
Where [5] appears, read: TGI concentration (KA39 15.9 μΜ, KA25 120 μΜ), 24 h.
Setting [6] is: LoVo cells, 3 and 24 h (Figure S47).
The mark [7] stands for this setting: SW403 cells, 3 and 24 h (Figure S48).

With `COc1cc(Cc2nnc3sc(C=Cc4ccc(F)cc4)nn23)c(S(=O)(=O)N(C)C)cc1OC` [KA25], in the experiment on HT-29, the TGI concentration is 120 μΜ. For the same compound, the “decrease of Akt2 phospho-form” value in the experiment on Akt2 phosphorylation (setting [2]) was found to be 73.74%; with Akt2 phosphorylation (setting [3]), 76.9%; in the experiment on Akt2 phosphorylation (setting [4]), 82.6%; with Akt2 phosphorylation (setting [5]), 86.4%. Further, the “phosphorylation of Akt2” value in the experiment on Akt2 phosphorylation (setting [6]) and in the experiment on Akt2 phosphorylation (setting [7]) was “significantly inhibited” in each case. The “decrease of Akt1 phospho-form” value is 83.38% in the experiment with Akt1 phosphorylation (setting [2]), 79.8% in the experiment on Akt1 phosphorylation (setting [3]), 86.45% in the experiment with Akt1 phosphorylation (setting [4]) and 87.73% in the experiment with Akt1 phosphorylation (setting [5]). The “phosphorylation of Akt1” value in the experiment on Akt1 phosphorylation (setting [6]) and in the experiment on Akt1 phosphorylation (setting [7]) was “significantly inhibited” each time. Also, the “volume size of the tumors” value in experiment [1] is 521.6 ± 101.6 mm^3. Also, the “tumor inhibition (TI)” value in experiment [1] was determined as 62.1%.

Regarding `COc1cc(Cc2nnc3sc(C=Cc4ccc(Cl)cc4)nn23)c(S(=O)(=O)N(C)C)cc1OC` [KA26], in experiment [1], the “volume size of the tumors” value was found to be 528.5 ± 167.7 mm^3 and the “tumor inhibition (TI)” value worked out at 62.4%.

Turning to `COc1cc(Cc2nnc3sc(-c4cc([N+](=O)[O-])ccc4[N+](=O)[O-])nn23)c(S(=O)(=O)N(C)C)cc1OC` [KA39], the TGI concentration in the experiment on HT-29 is 15.9 μΜ. Moreover, the “decrease of Akt2 phospho-form” value is given as 60.76% in the experiment on Akt2 phosphorylation (setting [2]), 83.55% with Akt2 phosphorylation (setting [3]), 58.87% with Akt2 phosphorylation (setting [4]) and 86% in the experiment on Akt2 phosphorylation (setting [5]). The “phosphorylation of Akt2” value with Akt2 phosphorylation (setting [6]) and with Akt2 phosphorylation (setting [7]) was “significantly inhibited” throughout. The “decrease of Akt1 phospho-form” value with Akt1 phosphorylation (setting [2]) stood at 73.66%; with Akt1 phosphorylation (setting [3]) it was 75.71%; in the experiment with Akt1 phosphorylation (setting [4]), 72.9%; in the experiment on Akt1 phosphorylation (setting [5]), 88.5%. The “phosphorylation of Akt1” value with Akt1 phosphorylation (setting [6]) and in the experiment on Akt1 phosphorylation (setting [7]) was “significantly inhibited” throughout. The “volume size of the tumors” value in experiment [1] is given as 489.17 ± 81.5 mm^3. Besides, the “tumor inhibition (TI)” value in experiment [1] was 67.6%.
